Test results: patent US10668034B2, “Pharmaceutical compositions and the treatment of overactive bladder” (Velicept Therapeutics, Inc., priority 2010, dated 2020)
Where two headings read alike, the source gives them in different places.

Legend:
[1] = test system: muscarinic receptor subtypes M1, M2, M3, M4 and M5; settings: cited from earlier work
[2] = test system: isolated rat urinary bladder strips; assay: EFS-induced contractions of rat isolated urinary bladder strips, beta-3 agonist with or without 10 nM antimuscarinic (Example 3); type: cell-based
Procedure: In this study various combinations of β3-adrenoceptor agonists and antimuscarinics were tested in isolated rat urinary bladder strips. Urinary bladder smooth muscle strips were obtained from female rats (Sprague-Dawley strain, body weight 240-360 g). Two strips per bladder were prepared and connected to tension transducers in 5 ml organ baths containing Krebs-Henseleit solution (kept at 37° C., pH 7.4, gassed with 95% O2/5% CO2). Prazosin (1 μM) was added to the Krebs solution in order to block al-adrenoceptors. Strips were equilibrated for at least 60 min at 1.0 g resting tension, during which tissues were washed every 15 min. Then, each strip was exposed to 80 mM KCl to verify its viability. After another 45 min wash-out period, strips were subjected to EFS (electrical field stimulation parameters: constant current 800 mA; frequency of 15 Hz; square pulse of 0.1 ms, train of 4 s every 2 min). […] Cumulative concentrations of solabegron (10 nM-10 μM), mirabegron (10 nM-10 μM) and CL-316,243 (1 nM-10 μM) were then added in half-log increments. At the end of CRC's, 10 μM forskolin (FSK) was added to determine maximal relaxation (FIG. 1). […] Each CRC was fit using non-linear regression (GraphPad Prism® software) to obtain Emax and pIC50 (−log IC50) values. Mean CRCs for vehicle and treated strips were fit in parallel and statistically compared. The first fit was used to compare Emax values and when these values were not statistically different, a second fit was performed, sharing Emax, in order to obtain pIC50 values for each pair of curves. Differences were considered statistically significant when the null hypothesis could be rejected at a risk a of less than 0.05.

[3] = test system: urinary bladder strips from rats; assay: EFS-induced contractions of rat urinary bladder strips (Example 2); type: cell-based; settings: for EC50: EFS-induced contractions, read-out: EC50 for inhibiting bladder contraction
Procedure: In order to investigate a possible pharmacological synergy on the combination of the muscarinic and the beta receptor pathways, the combination of the muscarinic antagonist oxybutynin and the beta-3 adrenoceptor agonist CL-316,243 (a very selective and potent rodent β3-AR agonist) was tested on EFS (electrical field stimulation)-induced responses in urinary bladder strips from rats.
Longitudinal strips of rat detrusor muscle were suspended in organ bath chambers containing oxygenated Krebs solution (pH 7.4, gassed with 95% O2 and 5% CO2 at 37° C.). Prazosin (1 μM) was added to the Krebs solution in order to block al-adrenoceptors. Bladder responses were measured using isometric transducers and recorded using a data acquisition system. Tissues were allowed to equilibrate under a resting tension of 1.0 g for 60 min. Following the equilibration period, strips were exposed to KCl (80 mM) to measure their viability. Tissues were washed and equilibrated for another 45 min period. Bladder strips were then subjected to EFS using the following parameters: maximal current 800 mA, frequency of 15 Hz, square pulse of 0.1 ms, trains of 4 s every 2 min. After approximately 15 min (when EFS contractions had stabilized), the selective β2-adrenoceptor antagonist ICI-118551 (30 nM) was incubated for 15 min. After stabilization of the contractile response, a concentration response curve was obtained for each bladder strip by adding CL-316,243 or oxybutynin (1 nM to 10 μM) (or corresponding vehicle) in log unit concentration increments.
In a second series of experiments, a single concentration of oxybutynin at 10 nM (determined from the first series of experiments) was added to organ bath chambers followed by various doses of CL-316,243 to provide a concentration-response curve for CL-316,243.

[4] = Drug interaction study, post void residual (PVR) volume by bladder ultrasound; type: in vivo, human
Procedure: A drug interaction study was conducted in healthy human volunteers, using repeat oral doses of solabegron and oxybutynin administered singly as well as in combination with each other, in order to assess the effects on pharmacokinetic and pharmacodynamic parameters, as measured by post void residual (PVR) volumes. PVR was measured in subjects treated with each agent alone as well as in combination at steady-state. The study was a two-cohort randomized, open label, repeat dose, 3-way crossover study in healthy adult subjects. Two marketed formulations of oxybutynin were used in the study: i) Ditropan IR®, which is immediate release (IR) oxybutynin; and ii) Ditropan XL® which is extended release (XL) oxybutynin. The total daily dose given was 20 mg. Solabegron was administered as tablets. […] Each study session was separated by a washout period of at least 5 days. Safety assessments included vital signs, ambulatory blood pressure monitoring (ABPM) physical examinations, clinical laboratory safety tests, 12-lead ECGs, PVR volume, to assess the potential for urinary retention, and adverse events. […] Bladder ultrasound scans to measure PVR volumes were conducted on Day-1 (one day prior to the dosing period) and Day 6 (sixth day of the dosing period) of each study session.

[5] = in the presence of 10 nM oxybutynin
[6] = in the presence of 10 nM solifenacin
[7] = in the presence of 10 nM tolterodine
[8] = in the presence of oxybutynin (10 nM)

In the case of `O=C(O[C@H]1CN2CCC1CC2)N1CCc2ccccc2[C@@H]1c1ccccc1` [solifenacin], the “Discrimination between M3 and M1/M4 subtypes (in words)” value [1] is given as “do not distinguish” and the “Selectivity for M3 over the M2/M5 subtypes” value [1] is given as ~10 fold.

For `Nc1nc(CC(=O)Nc2ccc(CCNC[C@H](O)c3ccccc3)cc2)cs1` [mirabegron], the “IC50 of beta-3 agonist vs vehicle (in words)” value (shortened to “IC50 … vs vehicle (in words)”) [2, 5] was “significantly lower”, the “IC50 … vs vehicle (in words)” value [2, 6] was “significantly lower” and the “Emax of beta-3 agonist vs vehicle (in words)” value (shortened to “Emax … vs vehicle (in words)”) [2, 7] was “appeared to be increased”. The “IC50 … vs vehicle (in words)” value [2, 7] was “significantly lower”.

For `C[C@H](Cc1ccc2c(c1)OC(C(=O)[O-])(C(=O)[O-])O2)NC[C@H](O)c1cccc(Cl)c1.[Na+].[Na+]` [CL-316,243], the “Maximal inhibition of EFS-induced contractions” value ([3]; CL-316,243 alone) was 65%, the EC50 ([3]; CL-316,243 alone) was 7.2 nM and the “Shift to the left of concentration-response curve” value ([3]; in the presence of a minimally effective dose of oxybutynin (10 nM)) was ~3.5 fold. The “Maximal inhibition of EFS-induced contractions” value [3, 8] was 80%, the EC50 [3, 8] was 2.1 nM and the “Emax … vs vehicle (in words)” value [2, 5] was “significantly increased”. The “IC50 … vs vehicle (in words)” value [2, 5] was “significantly decreased” and the “Emax … vs vehicle (in words)” value [2, 7] was “significantly increased”.

For `Cc1ccc(O)c([C@H](CCN(C(C)C)C(C)C)c2ccccc2)c1` [tolterodine], the “Discrimination between the five muscarinic subtypes (in words)” value [1] is given as “does not discriminate between the five subtypes”.

In the case of `CCN(CC)CC#CCOC(=O)C(O)(c1ccccc1)C1CCCCC1` (stereo not shown) [oxybutynin, 4-diethylaminobut-2-ynyl 2-cyclohexyl-2-hydroxy-2-phenyl-ethanoate], the “Effect of oxybutynin alone on EFS-induced responses (in words)” value ([3]; oxybutynin at a concentration of 10 nM, first series of experiments) is listed as “minimal contraction”, the “Discrimination between M3 and M1/M4 subtypes (in words)” value [1] is listed as “do not distinguish” and the “Selectivity for M3 over the M2/M5 subtypes” value [1] is listed as ~10 fold.

For `O=C(O)c1cccc(-c2cccc(NCCNC[C@H](O)c3cccc(Cl)c3)c2)c1` [solabegron, 3′-[(2-{[(2R)-2-(3-chlorophenyl)-2-hydroxyethyl]amino}ethyl)amino]biphenyl-3-carboxylic acid], the “Mean increase from baseline in PVR volume” value ([4]; healthy human subjects, repeat oral doses for 5 days, Day 6 vs Day-1, solabegron 200 mg BID, oxybutynin IR 5 mg QID, oxybutynin XL 10 mg BID) was 4.4 mL, the “Changes in PVR volume (in words)” value ([4]; healthy subjects) was “minimal changes” and the “Emax … vs vehicle (in words)” value [2, 5] was “significantly increased”. For the same molecule, the “IC50 … vs vehicle (in words)” value [2, 5] was “significantly lower”, the “Emax … vs vehicle (in words)” value [2, 6] was “significantly increased” and the “Emax … vs vehicle (in words)” value [2, 7] was “significantly increased”. For the same molecule, the “IC50 … vs vehicle (in words)” value [2, 7] was “significantly lower”.
